The subject of one data set is herpesviruses. The note with it: cited from earlier work.
For data set [1] the following is noted: cited from earlier work.
Data set [2] concerns TNFα. In words: Inhibition of TNFα production in LPS-stimulated THP-1 cells (ELISA). It counts as cell-based, human. The note with it: Homo sapiens; Table 2; LPS-stimulated THP-1, 6 h post-stimulation. The protocol:
(§1) Cell line. THP-1 cells (human monocyte) were maintained in RPMI 1640 medium containing 25 mM Hepes buffer, 2 mM L-glutamine, 50 units of penicillin per mL, 50 μg of streptomycin sulfate per mL, and 10% heat-inactivated fetal bovine serum (FBS) in a humidified incubator containing 5% CO2. The cells were split 1:4 weekly as recommended by the American Type Culture Collection (ATCC).
(§2) TNFα assay. Varying concentrations of the test compound or control compound were added to THP-1 cells plated at a density of 1×10^6cells/mL in 600 μL of 10% RPMI in a 48 well plate. After one hour the cells were stimulated with 0.5 μg of lipopolysaccharide (LPS; Sigma, lot number 43H40491) per mL. Six hours post-stimulation supernatants were collected and assayed for TNFα or IL-1β production using a commercially available cytokine detection ELISA (Enzyme Linked Immunosorbent Assay) kit according to the suppliers instructions. A suitable assay kit may be obtained from Biosource, or R and D systems. A novel xanthine analog, HWA-3138, having the structure (as shown below) was used as the control compound (30) in this study to monitor the response of the THP-l cells. Xanthine analogs are known inhibitors of TNFα but not IL-1β. In the following experiments compound HWA-3138 was used as a positive control. [drawing 58]
Time of Addition. Varying concentrations of test or control compounds were added to THP-1 cells (1×10^6 cells/mL) at different time points post-stimulation using 0.5 μg of LPS (Sigma, lot number 43H40491) per mL in 300 μL of 10% RPMI in a 48 well plate. Six hours post-stimulationsupernatants were collected and assayed for TNFα or IL-1β production using a Biosource cytokine detection ELISA (Enzyme Linked Immunosorbent Assay) kit according to the supplier's instructions.
The membrane bound TNFα was separated from the free TNFα in the culture medium at 6 hours post-LPS stimulation as follows: The corresponding cells were centrifuged at 3500 rpm (~1,000×g) for 6 min. The supernatants were removed and the cell pellets were then resuspended in 200 μL of 0.25 mM Tris-HCl (pH 7.4). The cell associated TNFα was prepared by freezing the cell suspension in dry ice/ethanol and thawing at 37° C. three times with Vortexing in-between freeze-thaw cycles. Each cycle was 4-5 min apart.
To determine the long-term effects of phosphazole compound T70241 on TNFα production after a single treatment, THP-1 cells were pre-incubated with T70241, washed and resuspended in drug free medium. The xanthine analog HWA-3138 was used as a control.
(An ELISA detects its analyte on a solid surface through an enzyme-linked reagent.)

In the next data set the test system is IL-1β. Nature of the data set: Inhibition of IL-1β production in LPS-stimulated THP-1 cells (ELISA). In kind it is cell-based, human. The note with it: Homo sapiens; Table 2; LPS-stimulated THP-1, 6 h post-stimulation; read-out: IC50 IL-1β in THP-1 cells. The protocol:
as §1
as §2, with “58] […]” for “58]”
THP-1 cells were cultured and IL-1β inhibition assays were conducted as described for TNFα in Example 46, except a commercially available IL-1β assay kit, obtained from R and D Systems, Minneapolis, Minn., was used instead of the TNFα kit.
With reference now to FIG. 8, for each concentration of T70241 tested, the membrane bound IL-1β was separated from the IL-1β found free in the culture medium at 6 hours post-LPS stimulation as described in Example 46 for TNFα, and the percent inhibition of each fraction was graphed.

Data set [3] relates to adenosine deaminase (ADA). Nature of the data set: Enzymatic hydrolysis by adenosine deaminase. In kind it is in vitro ADME, calf. The note with it: 25° C. Here is the method: Adenosine deaminase (ADA, adenosine aminohydrolase, EC 3.5.4.4, SIGMA) from calf intestinal mucosa was prepared to give a stock of 1 mg/mL (250-280 units/mL) in pH 7.4, 0.01 M phosphate buffer. The relative rates of hydrolysis of selected compounds by ADA and characterization of the products was carried as follows. […] Fifty-microliter aliquots were taken at time intervals and hydrolysis was quenched by mixing with 0.45 mL of distilled water and then the diluted sample was heated at 95° C. for 6 min to ensure enxyme deactivation. The decrease in substrate concentration and the formation of the products was followed over time by UV-spectroscopic analysis. Adenosine was used as a control in this experiment and one unit is defined as the amount of ADA that hydrolyzes 1.0 μmol of adenosine/min at 25° C.

In data set [4] the test system is TNFα. The note with it: by inhibition of PDE activity; cited from earlier work.
In the next data set the test system is HCMV (Town strain). Nature of the data set: HCMV plaque reduction (CPE) assay in MRC-5 cells. It counts as cell-based, human cytomegalovirus. The note with it: Human betaherpesvirus 5, MRC5; Table 4; read-out: IC50 HCMV. Here is the method:
The adenine analog phosphazole (compound T70241) was assayed for antiviral activity using a HCMV plaque reduction assay, in accordance with known methods such as that described in U.S. Pat. No. 5,446,045.
(§3) Cell Culture. Vero (African Green Monkey kidney cells) and MRC-5 (diploid Human Embryonic Lung fibroblasts) cells were obtained from the American Type Culture Collection (ATCC) and were grown in minimal essential medium (MEM) with Earl's salts and glutamine (GIBCO BRL, Life Technologies, Inc.) with 10% heat inactivated fetal bovine serum (GIBCO BRL) and penicillin (100 μg/mL)/streptomycin (100 μg/mL).
CMV Cytopathic Effect (CPE) Assay. Assays were performed essentially as described by Lewis et al. (111), which report is incorporated herein by reference. MRC-5 cells (100,000 cells/well) were seeded in 24-well plates overnight. Medium was then removed and wells were rinsed once with 250 μL of 2% FCS-MEM before adding 40-50 pfu of HCMV (Town strain) to each well. After 2 hours of virus adsorption, the medium was removed and the cells were rinsed once with 2% FCS-MEM. Varying concentrations of the phosphazole compound in the culture medium (1 mL) was then added to appropriate wells and plates were incubated for 5-6 days at 37° C. in a humidified 5% CO2 atmosphere. Each concentration was tested in duplicate wells.
The extent of the plaque reduction was quantitated by removing the media and adding 200 μL of 0.1% crystal violet in 20% methanol to all wells. The crystal violet was then removed after 10 min staining at room temperature by rinsing in the sink with tap water and the plates dried overnight. The plaques were then counted using a Nikon inverted microscope.

Data set [5] is described as follows: Cytotoxicity on growing MRC-5 cells (MTS). The conditions noted are these: human, mrc-5 cells; Table 4; 50% inhibition of logphase growing cells; read-out: TC50 Growing MRC-5. It counts as cell-based, human. Here is the method:
as §3
(§4) Cytotoxicity Analysis. The cytotoxicity of the compound was assayed using few the CellTiter 96™ Aqueous Non-Radioactive Cell Proliferation (MTS) Assay (Promega). Briefly, viable cell number was determined by trypan blue staining and cells (MRC-5 and Vero) were resuspended in minimal essential medium (MEM) supplemented with 10% FBS (GIBCO). Eighty microliters of cell suspension (1.7×10^4 cells/well) was dispensed onto a 96-well microtiter plates. At this time 20 μL of drug (or control) was added to appropriate wells. Each concentration was assayed in quadruplicate. The plates were incubated at 37° C. in a humidified 5% CO2 atmosphere for 4 days and MTS assay was performed according to the manufacturer's instructions. The average absorbence of the sample was graphed for each concentration and the data obtained was used to calculate TC50 (the concentration necessary to give one-half maximum growth) for each compound.

The nature of data set [6]: Cytotoxicity on static MRC-5 cells. It counts as cell-based. The conditions noted are these: human, Table 4, 50% cell death (static cells), read-out: TC50 Static MRC-5. Here is the method:
as §3, §4

Data set [7] can be described thus: Cytotoxicity on growing Vero cells (MTS). In kind it is cell-based. The note with it: african green monkey, Table 4, 50% inhibition of logphase growing cells, read-out: TC50 Growing Vero. The protocol:
as §3, §4

Data set [8] can be described thus: Cytotoxicity on static Vero cells. In kind it is cell-based. The note with it: african green monkey, Table 4, 50% cell death (static cells), read-out: TC50 Static Vero. Here is the method: as §3, §4
A further data set has as its system normal cells. The conditions noted are these: relative to antiviral concentrations; cited from earlier work.
Data set [9] deals with bone marrow progenitor cells. The note with it: cited from earlier work.
In another data set the test system is vaccinia virus. The note with it: in culture; cited from earlier work.
Data set [10] concerns vesicular stomatitis virus. The conditions noted are these: in culture; cited from earlier work.
Another data set concerns coxsackie B4 virus. The note with it: in culture; cited from earlier work.
The test system of data set [11] is murine leukemia (L1210) cells. The note with it: in culture; cited from earlier work.
Data set [12] has as its system murine mammary carcinoma (FM3) cells. The conditions noted are these: in culture; cited from earlier work.
Data set [13] relates to human B-lymphoblast (Raji) cells. The note with it: in culture; cited from earlier work.
Data set [14] has as its system human T-lymphoblast (Molt-4F) cells. The conditions noted are these: in culture; cited from earlier work.

Converted amounts (≈) assume the structure as drawn. Like-named read-outs stand apart in the source and are kept apart here.

With `O=C(O)P(=O)(O)O` [foscarnet], in the data set on herpesviruses, the “activity against herpesviruses” value is recorded as “observed activity against all known human herpesviruses”. Further, in data set [1] (patients), the “clinical toxicity” value was “nephrotoxicity, hypocalcemia, and seizures in some patients”.
As to `Nc1ncnc2c1ncn2[C@@H]1O[C@H](CO)[C@@H](O)[C@H]1O` [Adenosine, reference compound], the IC50 (in general, the midpoint of a concentration-inhibition curve) with TNFα [2] is 100 µg/mL (≈ 374 µM); in the data set on IL-1β, more than 250 µg/mL. Also, in data set [3], the “rate of hydrolysis by ADA” value came to 1.0 pmole/unit per min. Also, the “suppression of TNFα production” value in the data set with TNFα [4] is listed as “suppression of TNFα production”.
For `Nc1nc(O)c2ncn(COC(CO)CO)c2n1` [DHPG, ganciclovir, reference compound], the IC50 in the data set with HCMV (Town strain) was determined as 3.5 µg/mL (≈ 13.7 µM). The CC50 at 96 h in data set [5], in data set [6], in data set [7] and in [8] was more than 250 µg/mL throughout. Also, the “activity against herpesviruses” value in the data set on herpesviruses is “potent inhibitor of most human and animal herpes viruses in culture”. The “concentration needed to inhibit growth of normal cells” value in the data set on normal cells was “much higher concentrations are needed to inhibit cell growth of normal cells”. In addition, in data set [9], the “toxicity to bone marrow progenitor cells” value is reported as “toxic to bone marrow progenitor cells in culture”. Further, the “clinical toxicity” value in [1] (human, in vivo) is reported as “most clinical toxicity is myelosuppression”.
Turning to `CCOP(=O)(OCC)c1nc2c(Cl)ncnc2n1[C@@H]1O[C@H](CO)[C@@H](O)[C@H]1O` [compound 1, Diethyl 6-chloro-9-(β-D-ribofuranosyl)purine-8-phosphate], the “activity against vaccinia virus” value in the data set on vaccinia virus is reported as “significant activity”. The “activity against vesicular stomatitis virus” value in data set [10] was “significant activity”. Moreover, in the data set with coxsackie B4 virus, the “activity against coxsackie B4 virus” value is reported as “significant activity”. For the same molecule, in [11], the “inhibition of proliferation of L1210” value is given as “inhibitory”. In data set [12], the “inhibition of proliferation of FM3” value is on record as “inhibitory”. Further, the “inhibition of proliferation of Raji” value in [13] is on record as “inhibitory”. In addition, the “inhibition of proliferation of Molt-4F” value in data set [14] is listed as “inhibitory”.

The record behind these values is patent US6069132A, “Phosphazole compounds” (priority 1997, dated 2000).
